Data published in article PMC8654833 (Scientific Reports, 2021).
Several values for one entry are separate records, joined by “and”; a condition that tells them apart may be missing. Equal values may be shown once.

Tests used:
[1] = target: T1, NET (Homo sapiens, UniProt P23975); test: Radioligand binding competition dose-response (Euroscreen), norepinephrine transporter; details: dose-response study, maximal concentration 10 µM, 3H]nisoxetine
T1 construct: Euroscreen FAST (contract assay)
Procedure: (§1) This study included binding assays (87 GPCR targets), measured as % of binding inhibition of a reference radioligand, as well as uptake and enzyme assays (19 targets), the latter measured as % inhibition of control enzyme activity. […] It was performed by radioligand binding competition by Euroscreen (Euroscreen FAST, Belgium). The following nanomolar concentrations were tested in duplicate: 0.001, 0.01, 0.1, 1, 10, 100, 1000, 10,000. Dose–response curves were fitted with the least squares method. IC50 results are shown as pIC50, corresponding to the negative log10 of IC50 in molar.

[2] = in vivo; details: CD-1, mouse, po, 10 mg/kg
[3] = Plasma pharmacokinetics after IV, PO or SC administration; details: for half-life / bioavailability: in vivo
[4] = target: T2, 5-HT1B (Homo sapiens, UniProt P28222); test: Radioligand binding competition dose-response (Euroscreen), 5-HT1B
T2 construct: Euroscreen FAST (contract assay)
Procedure: as §1

[5] = target: T3, 5-HT1A (Homo sapiens, UniProt P08908); test: Radioligand binding competition dose-response (Euroscreen), 5-HT1A
T3 construct: Euroscreen FAST (contract assay)
T3 sequence (P08908 1-422): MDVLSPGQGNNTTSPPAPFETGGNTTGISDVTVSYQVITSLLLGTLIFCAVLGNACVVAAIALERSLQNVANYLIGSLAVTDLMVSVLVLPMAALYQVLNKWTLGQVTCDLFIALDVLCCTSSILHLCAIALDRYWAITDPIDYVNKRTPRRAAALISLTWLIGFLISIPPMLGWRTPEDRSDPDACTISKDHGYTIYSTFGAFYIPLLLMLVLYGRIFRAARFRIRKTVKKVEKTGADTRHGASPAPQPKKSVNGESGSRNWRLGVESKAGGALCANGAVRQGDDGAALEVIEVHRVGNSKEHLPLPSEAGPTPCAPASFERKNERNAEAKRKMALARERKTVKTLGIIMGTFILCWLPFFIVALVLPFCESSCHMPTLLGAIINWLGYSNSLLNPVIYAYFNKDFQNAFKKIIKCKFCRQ
Procedure: as §1

[6] = tested on: 5-HT2B receptor; details: cited from earlier work
[7] = target: T1, NET; test: Single-concentration radioligand binding screen (Eurofins Cerep), norepinephrine transporter; details: single concentration 10 µM screen, 3H]nisoxetine
Procedure: as §1

[8] = target: T4, 5-HT7 (Homo sapiens, UniProt P34969); test: Radioligand binding competition dose-response (Euroscreen), 5-HT7
T4 construct: Euroscreen FAST (contract assay)
Procedure: as §1

[9] = target: T5, DAT (Homo sapiens, UniProt Q01959); test: Single-concentration radioligand binding screen (Eurofins Cerep), dopamine transporter; details: single concentration 10 µM screen, [3H]BTCP
T5 construct: Euroscreen FAST (contract assay)
Procedure: as §1

[10] = tested on: microglia related genes in the cervical and thoracic spinal cord; test: RT-qPCR of microglia related genes in spinal cord; assay type: in vivo, Sod1^G86R mice
Procedure: We then sought to characterize whether BW modulated microglial physiology and used RT-qPCR to measure microglia related genes in the cervical and thoracic spinal cord of animals treated with either vehicle or 3 mg/kg/d of BW. […] We next wanted to see if these changes in gene expression were accompanied by modification of microglial activation in spinal cord of treated mice. Iba1 + cells were classified in 4 different activation states (resting, activated, phagocytic or dystrophic).
Total RNA was extracted from the cervical and thoracic spinal cord of end stage mice using TRIzol (Invitrogen). Reverse transcription was performed using 1 μg of RNA and the iScript cDNA synthesis kit (BioRad). IQ SYBR green Supermix (BioRad) was used to perform RT-PCR. Data were normalized with GeNorm software (RRID: SCR_006763)[25]. Three reporter genes were used for normalization: POL2, TBP and Actin. Oligonucleotide primers are provided in Supplementary Table S1.

[11] = target: T6, 5-HT5A (Homo sapiens, UniProt P47898); test: Radioligand binding competition dose-response (Euroscreen), 5-HT5A
T6 construct: Euroscreen FAST (contract assay)
Procedure: as §1

[12] = target: T4, 5-HT7; test: Single-concentration radioligand binding screen (Eurofins Cerep), 5-HT7; details: single concentration 10 µM screen, [3H]LSD
Procedure: as §1

[13] = target: 5-HT2B (Homo sapiens, UniProt P41595); test: Single-concentration radioligand binding screen (Eurofins Cerep), 5-HT2B; parameters: Euroscreen FAST (contract assay); details: single concentration 10 µM screen, [3H]mesulergine
[14] = target: Ca^2+ channel, vs; test: Radioligand binding competition dose-response (Euroscreen), Ca2+ channel verapamil site
Procedure: as §1

[15] = target: T7, 5-HT1B (Rattus norvegicus, UniProt P28564); test: Single-concentration radioligand binding screen (Eurofins Cerep), 5-HT1B; details: read-out: %Binding inhibition at 10 µM
T7 construct: Eurofins Cerep (contract assay)
Procedure: as §1

[16] = Stability in vehicle at 37 °C by LC-MS; assay type: physicochemical; details: vehicle (20% DMSO in distilled water), data not shown
[17] = IV 2 mg/kg, individual mice n1-n3, 2 mg/kg
[18] = PO 10 mg/kg, individual mice n1-n3, 10 mg/kg
[19] = SC 10 mg/kg, individual mice n1-n3, 10 mg/kg
[20] = dose-response study, maximal concentration 10 µM, [3H]LSD

T2 sequence (P28222 whole entry, species assumed): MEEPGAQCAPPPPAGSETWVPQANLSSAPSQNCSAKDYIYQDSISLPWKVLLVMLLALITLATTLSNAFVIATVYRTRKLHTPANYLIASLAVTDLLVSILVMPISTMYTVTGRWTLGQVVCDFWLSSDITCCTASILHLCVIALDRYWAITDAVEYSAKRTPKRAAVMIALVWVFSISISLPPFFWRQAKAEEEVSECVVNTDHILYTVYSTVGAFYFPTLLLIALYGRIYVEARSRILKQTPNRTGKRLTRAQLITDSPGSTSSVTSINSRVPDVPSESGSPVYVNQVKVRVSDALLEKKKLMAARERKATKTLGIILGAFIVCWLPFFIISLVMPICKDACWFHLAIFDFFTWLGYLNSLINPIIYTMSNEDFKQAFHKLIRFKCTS
T4 sequence (P34969 whole entry, species assumed): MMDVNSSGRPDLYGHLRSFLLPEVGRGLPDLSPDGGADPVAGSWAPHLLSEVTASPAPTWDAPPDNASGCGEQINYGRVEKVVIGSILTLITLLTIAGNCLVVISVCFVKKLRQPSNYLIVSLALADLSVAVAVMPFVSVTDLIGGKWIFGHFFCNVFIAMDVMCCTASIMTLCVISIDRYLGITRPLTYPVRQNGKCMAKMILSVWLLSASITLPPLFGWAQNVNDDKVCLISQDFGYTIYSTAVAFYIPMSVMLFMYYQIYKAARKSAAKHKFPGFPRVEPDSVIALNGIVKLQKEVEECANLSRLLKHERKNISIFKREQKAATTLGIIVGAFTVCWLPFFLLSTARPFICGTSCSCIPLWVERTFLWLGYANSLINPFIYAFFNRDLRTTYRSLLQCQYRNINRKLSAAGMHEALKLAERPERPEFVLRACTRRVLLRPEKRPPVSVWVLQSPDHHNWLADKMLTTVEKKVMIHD
T6 sequence (P47898 whole entry, species assumed): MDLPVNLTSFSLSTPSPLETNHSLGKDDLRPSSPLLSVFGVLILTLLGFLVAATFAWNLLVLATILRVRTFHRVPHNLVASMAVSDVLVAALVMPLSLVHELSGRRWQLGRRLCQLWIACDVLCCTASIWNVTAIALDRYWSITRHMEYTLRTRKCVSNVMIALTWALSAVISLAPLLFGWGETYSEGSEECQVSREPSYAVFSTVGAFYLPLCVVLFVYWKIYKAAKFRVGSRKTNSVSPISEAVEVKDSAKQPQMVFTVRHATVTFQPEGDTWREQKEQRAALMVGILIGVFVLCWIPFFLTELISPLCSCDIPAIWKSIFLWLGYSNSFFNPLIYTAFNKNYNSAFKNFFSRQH
T1 sequence (P23975 whole entry): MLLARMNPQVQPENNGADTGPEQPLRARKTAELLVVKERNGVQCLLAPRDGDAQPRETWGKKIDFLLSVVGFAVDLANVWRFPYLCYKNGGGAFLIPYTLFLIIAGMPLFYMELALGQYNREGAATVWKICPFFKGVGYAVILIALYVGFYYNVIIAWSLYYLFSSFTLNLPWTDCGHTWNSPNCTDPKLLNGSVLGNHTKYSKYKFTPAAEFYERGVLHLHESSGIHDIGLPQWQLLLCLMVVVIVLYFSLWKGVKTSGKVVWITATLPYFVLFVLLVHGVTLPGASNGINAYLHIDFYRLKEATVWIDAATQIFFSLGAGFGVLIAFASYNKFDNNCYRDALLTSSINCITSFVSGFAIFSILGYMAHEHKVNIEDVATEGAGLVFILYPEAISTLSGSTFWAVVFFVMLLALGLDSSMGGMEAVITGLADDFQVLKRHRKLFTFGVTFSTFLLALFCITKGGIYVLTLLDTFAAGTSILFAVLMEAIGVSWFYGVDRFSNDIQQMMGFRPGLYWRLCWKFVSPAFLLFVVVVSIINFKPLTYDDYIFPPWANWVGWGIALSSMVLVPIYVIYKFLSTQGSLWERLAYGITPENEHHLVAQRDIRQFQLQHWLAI
T5 sequence (Q01959 whole entry, species assumed): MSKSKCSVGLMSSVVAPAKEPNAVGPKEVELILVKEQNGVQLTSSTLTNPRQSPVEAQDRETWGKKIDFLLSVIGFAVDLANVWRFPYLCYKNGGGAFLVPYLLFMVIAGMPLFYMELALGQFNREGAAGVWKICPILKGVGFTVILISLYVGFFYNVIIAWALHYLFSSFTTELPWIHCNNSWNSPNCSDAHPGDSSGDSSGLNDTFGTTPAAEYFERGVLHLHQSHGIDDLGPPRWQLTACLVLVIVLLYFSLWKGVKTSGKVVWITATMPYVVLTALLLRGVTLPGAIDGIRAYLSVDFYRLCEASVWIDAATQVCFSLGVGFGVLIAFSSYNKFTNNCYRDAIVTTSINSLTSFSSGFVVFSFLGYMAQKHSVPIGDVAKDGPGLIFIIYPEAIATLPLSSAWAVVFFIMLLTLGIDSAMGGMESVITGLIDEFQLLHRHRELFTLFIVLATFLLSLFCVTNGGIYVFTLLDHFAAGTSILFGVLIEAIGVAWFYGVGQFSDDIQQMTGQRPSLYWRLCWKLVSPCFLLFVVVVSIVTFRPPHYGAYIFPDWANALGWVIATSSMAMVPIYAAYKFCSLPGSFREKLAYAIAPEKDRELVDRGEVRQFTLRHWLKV
Sequence of 5-HT2B (P41595 whole entry, species assumed): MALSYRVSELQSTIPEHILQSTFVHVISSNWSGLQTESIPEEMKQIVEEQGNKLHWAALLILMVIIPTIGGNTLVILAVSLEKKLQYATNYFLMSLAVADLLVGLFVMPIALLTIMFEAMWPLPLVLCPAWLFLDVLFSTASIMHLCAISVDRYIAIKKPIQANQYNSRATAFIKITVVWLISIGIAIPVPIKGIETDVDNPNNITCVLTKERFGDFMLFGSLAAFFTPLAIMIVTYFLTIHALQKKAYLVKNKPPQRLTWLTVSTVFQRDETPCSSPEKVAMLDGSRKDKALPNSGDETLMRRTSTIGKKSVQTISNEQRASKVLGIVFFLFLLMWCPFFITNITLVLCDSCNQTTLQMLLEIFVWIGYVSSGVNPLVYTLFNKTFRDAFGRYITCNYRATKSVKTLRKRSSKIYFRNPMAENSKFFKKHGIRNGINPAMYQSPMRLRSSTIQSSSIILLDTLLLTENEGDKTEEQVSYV
T7 sequence (P28564 whole entry): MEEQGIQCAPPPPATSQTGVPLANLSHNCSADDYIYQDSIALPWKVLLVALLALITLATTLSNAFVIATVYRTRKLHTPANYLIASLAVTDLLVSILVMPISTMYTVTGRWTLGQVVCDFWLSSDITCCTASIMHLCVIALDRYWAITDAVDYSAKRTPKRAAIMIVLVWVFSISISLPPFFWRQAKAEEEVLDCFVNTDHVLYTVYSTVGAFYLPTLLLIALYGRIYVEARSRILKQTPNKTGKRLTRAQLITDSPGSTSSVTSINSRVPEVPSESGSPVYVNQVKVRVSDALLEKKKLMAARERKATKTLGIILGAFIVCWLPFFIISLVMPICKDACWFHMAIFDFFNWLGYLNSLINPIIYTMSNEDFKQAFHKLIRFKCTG

Structure (SMILES): CC(N)Cc1c[nH]c2ccc(OCc3cccs3)cc12 (centres unmarked) [BW, 1-[5-(thiophen-2-ylmethoxy)-1H-indol-3-yl]propan-2-amine]
- inhibition at 10 µM [1]: 74.4%
- Tmax [2]: 30 min
- plasma detection at 24 h ([3]; 24 h after a single administration (data not shown)): no compound could be detected
- half-life ([3]; CD-1, mouse, iv, 2 mg/kg, T1/2, IV 2 mg/kg, individual mice n1-n3): 58.8 min
- half-life ([3]; CD-1, mouse, iv, 2 mg/kg, T1/2, IV 2 mg/kg, mean): 55.8 min
- bioavailability ([3]; CD-1, mouse, po, 10 mg/kg, PO 10 mg/kg): 4.72%
- half-life ([3]; CD-1, mouse, po, 10 mg/kg, T1/2, PO 10 mg/kg, mean): 153 min
- bioavailability ([3]; CD-1, mouse, sc, 10 mg/kg, SC 10 mg/kg): 35%
- half-life ([3]; CD-1, mouse, sc, 10 mg/kg, T1/2, SC 10 mg/kg, individual mice n1-n3): 68.4 min
- half-life ([3]; CD-1, mouse, sc, 10 mg/kg, T1/2, SC 10 mg/kg, mean): 82.2 min
- AUC0-inf ([3]; CD-1, mouse, plasma, iv, 2 mg/kg, AUC0-inf, IV 2 mg/kg, individual mice n1-n3): 289 ng·h/mL
- AUC0-inf ([3]; CD-1, mouse, plasma, iv, 2 mg/kg, AUC0-inf, IV 2 mg/kg, mean): 236 ng·h/mL
- C0 ([3]; CD-1, mouse, plasma, iv, 2 mg/kg, C0, IV 2 mg/kg, individual mice n1-n3): 406 ng/mL
- C0 ([3]; CD-1, mouse, plasma, iv, 2 mg/kg, C0, IV 2 mg/kg, mean): 354 ng/mL
- AUC0-inf ([3]; CD-1, mouse, plasma, po, 10 mg/kg, AUC0-inf, PO 10 mg/kg, individual mice n1-n3): 239 ng·h/mL
- AUC0-inf ([3]; CD-1, mouse, plasma, po, 10 mg/kg, AUC0-inf, PO 10 mg/kg, mean): 278 ng·h/mL
- Cmax ([3]; CD-1, mouse, plasma, po, 10 mg/kg, Cmax, PO 10 mg/kg, mean): 77 ng/mL
- Tmax ([3]; CD-1, mouse, plasma, po, 10 mg/kg, Tmax, PO 10 mg/kg, mean): 34.8 min
- AUC0-inf ([3]; CD-1, mouse, plasma, sc, 10 mg/kg, AUC0-inf, SC 10 mg/kg, individual mice n1-n3): 2030 ng·h/mL
- AUC0-inf ([3]; CD-1, mouse, plasma, sc, 10 mg/kg, AUC0-inf, SC 10 mg/kg, mean): 2070 ng·h/mL
- Cmax ([3]; CD-1, mouse, plasma, sc, 10 mg/kg, Cmax, SC 10 mg/kg, individual mice n1-n3): 1100 ng/mL
- Cmax ([3]; CD-1, mouse, plasma, sc, 10 mg/kg, Cmax, SC 10 mg/kg, mean): 1020 ng/mL
- Tmax ([3]; CD-1, mouse, plasma, sc, 10 mg/kg, Tmax, SC 10 mg/kg, mean): 11.4 min
- AUC0-inf [3, 17]: 221 ng·h/mL and 199 ng·h/mL
- AUCExtra [3, 17]: 4.8% and 3.5% and 4.5%
- C0 [3, 17]: 290 ng/mL and 366 ng/mL
- T1/2 [3, 17]: 50.4 min and 58.8 min
- AUCExtra ([3]; IV 2 mg/kg, mean): 4.3%
- AUC0-inf [3, 18]: 294 ng·h/mL and 302 ng·h/mL
- AUCExtra [3, 18]: 29.9% and 7.2% and 1.0%
- Cmax [3, 18]: 36.5 ng/mL and 61.5 ng/mL and 132 ng/mL
- T1/2 [3, 18]: 270 min and 121 min and 67.8 min
- Tmax [3, 18]: 15 min and 60 min
- AUCExtra ([3]; PO 10 mg/kg, mean): 12.7%
- AUC0-inf [3, 19]: 2246 ng·h/mL and 1938 ng·h/mL
- AUCExtra [3, 19]: 0.7% and 1.4% and 3.3%
- Cmax [3, 19]: 1010 ng/mL and 935 ng/mL
- T1/2 [3, 19]: 72 min and 99 min
- Tmax [3, 19]: 0.25 h (2×) and 0.08 h
- AUCExtra ([3]; SC 10 mg/kg, mean): 1.8%
- IC50 [4]: 182 nM
- %Binding inhibition at 10 µM ([4]; dose-response study, maximal concentration 10 µM, [3H]5-CT, 10 µM): 101.39%
- inhibition at 10 µM ([4]; read-out: %Binding inhibition at 10 µM, dose-response study, maximal concentration 10 µM, [3H]5-CT): 100%
- IC50 [5]: 589 nM
- inhibition at 10 µM ([5]; dose-response study, maximal concentration 10 µM, [3H]8-OH-DPAT): 95%
- %Binding inhibition at 10 µM ([5]; dose-response study, maximal concentration 10 µM, [3H]8-OH-DPAT, 10 µM): 95.26%
- agonist activity in rat stomach fundus [6]: potent agonist
- inhibition at 10 µM [7]: 68.7%
- IC50 [8]: 1020 nM
- inhibition at 10 µM [8, 20]: 91.8%
- inhibition at 10 µM [9]: 81.9%
- Hexb upregulation in Sod1^G86R mice ([10]; 3 mg/kg/d, spinal cord RT-qPCR): partially prevented
- disease-associated upregulation of Nox2 ([10]; 3 mg/kg/d, spinal cord RT-qPCR): partially prevented
- disease-associated upregulation of Tyrobp (DAP12) ([10]; 3 mg/kg/d, spinal cord RT-qPCR): partially prevented
- upregulation of disease-associated microglia marker Apoe ([10]; 3 mg/kg/d, spinal cord RT-qPCR): blunted the upregulation
- upregulation of disease-associated microglia marker Cd9 ([10]; 3 mg/kg/d, spinal cord RT-qPCR): blunted the upregulation
- upregulation of disease-associated microglia marker Cst7 ([10]; 3 mg/kg/d, spinal cord RT-qPCR): blunted the upregulation
- upregulation of disease-associated microglia marker Lpl ([10]; 3 mg/kg/d, spinal cord RT-qPCR): blunted the upregulation
- Tmem119 expression ([10]; Sod1^G86R mice with BW treatment): downregulated
- IC50 [11]: 1380 nM
- inhibition at 10 µM [11, 20]: 84.3%
- inhibition at 10 µM [12]: 89.5%
- inhibition at 10 µM [13]: 99%
- pIC50 ([14]; [3H]D888 competition): 5.21
- %Binding inhibition at 10 µM ([14]; dose-response study, maximal concentration 10 µM, [3H]D888): 51.29%
- pIC50 difference as compared to 5-HT2BR ([14]; verapamil site of calcium channel vs 5-HT2BR): 2.3 log10
- inhibition at 10 µM [15]: 92%
- stable at 37 °C in vehicle [16]: at least 2 months
